Test systems include T-47D breast; SF-539 CNS; HCT-15 colon; UO-31 renal; SNB-19 CNS; MOLT-4 leukemia; CCRF-CEM leukemia; SNB-75 CNS; UACC-257 melanoma; A498 renal.
Common to all, as to assay: growth of human tumour cells (NCI), 48 h

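Five compound concentrations were applied to cells in 96-well plates for 48 hours; endpoints were derived by simple linear interpolation of the resulting dose-response curve. At the GI50, growth is halved. At the TGI there is no net growth.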

On to `COc1ccc(C(CC(=O)c2ccc3c(c2)OCO3)c2c(O)c3ccccc3oc2=O)cc1OC` (stereo not given), for which the TGI in the assay on T-47D breast, in the assay with SF-539 CNS, with HCT-15 colon, with UO-31 renal, with SNB-19 CNS and with MOLT-4 leukemia was more than 100 µM in each case. The TGI in the assay on CCRF-CEM leukemia, in the assay with SNB-75 CNS, in the assay on UACC-257 melanoma and in the assay with A498 renal was more than 100 µM each time.
Turning to `O=C(c1ccco1)c1c(C(F)(F)F)n([O-])c2ccc(C(F)(F)F)cc2[n+]1=O`, the GI50 was 0.344 µM in the assay on T-47D breast; 0.475 µM with SF-539 CNS; 0.291 µM with HCT-15 colon; 0.205 µM with UO-31 renal; 1.51 µM with SNB-19 CNS; 0.0912 µM with MOLT-4 leukemia. For the same compound, the GI50 in the assay on CCRF-CEM leukemia is 0.207 µM; in the assay with SNB-75 CNS, 0.576 µM; with UACC-257 melanoma, 1.49 µM; in the assay on A498 renal it was 1.41 µM. The TGI is 1.75 µM in the assay on T-47D breast; 0.91 µM in the assay on SF-539 CNS; 0.749 µM in the assay on HCT-15 colon; 0.439 µM in the assay on UO-31 renal; 2.92 µM in the assay with SNB-19 CNS; 0.313 µM in the assay on MOLT-4 leukemia. Also, the TGI amounted to 0.793 µM in the assay on CCRF-CEM leukemia, 1.55 µM in the assay with SNB-75 CNS, 3.06 µM with UACC-257 melanoma and 2.76 µM in the assay with A498 renal.
As for `Cc1ccc(OCCOCCOCCOCCOc2ccc(C)n(O)c2=S)c(=S)n1O`, the GI50 is less than 0.01 µM with T-47D breast; 0.317 µM in the assay on SF-539 CNS; less than 0.0104 µM in the assay on HCT-15 colon; 0.0177 µM in the assay on UO-31 renal; 0.221 µM in the assay with SNB-19 CNS; less than 0.01 µM with MOLT-4 leukemia. Moreover, the GI50 in the assay with CCRF-CEM leukemia is less than 0.01 µM; in the assay on SNB-75 CNS it was 3.49 µM; in the assay with UACC-257 melanoma it was 0.0192 µM; in the assay on A498 renal, 0.323 µM. In addition, the TGI in the assay with T-47D breast is more than 100 µM; in the assay on SF-539 CNS, more than 100 µM; in the assay with HCT-15 colon, more than 100 µM; in the assay with UO-31 renal, 4.14 µM; in the assay on SNB-19 CNS it was more than 100 µM; with MOLT-4 leukemia it was more than 100 µM. Further, the TGI in the assay on CCRF-CEM leukemia is more than 100 µM; with SNB-75 CNS it was more than 100 µM; with UACC-257 melanoma, more than 29.5 µM; in the assay on A498 renal, 10.9 µM.
Turning to `C#CCOc1cccc(Nc2ncnc3c(NC(=O)C=C)cccc23)c1`, the GI50 in the assay with T-47D breast was 18.2 µM; in the assay on SF-539 CNS, 14 µM; with HCT-15 colon, 12.6 µM; in the assay with UO-31 renal it was 13.4 µM; in the assay with SNB-19 CNS, 39.5 µM; in the assay on MOLT-4 leukemia, 19.4 µM. The GI50 in the assay with CCRF-CEM leukemia was 16.5 µM; with SNB-75 CNS, 17.6 µM; in the assay on UACC-257 melanoma, 31.4 µM; in the assay on A498 renal it was 24.4 µM. For the same compound, the TGI was 78.4 µM with T-47D breast; 36 µM with SF-539 CNS; 81.8 µM with HCT-15 colon; 87.5 µM with UO-31 renal; more than 100 µM in the assay on SNB-19 CNS; more than 100 µM in the assay with MOLT-4 leukemia. The TGI in the assay with CCRF-CEM leukemia was more than 100 µM; in the assay on SNB-75 CNS, more than 100 µM; in the assay with UACC-257 melanoma, more than 100 µM; with A498 renal, 64.4 µM.
For `CC(C)c1[nH]nc2c1N=C(c1ccccc1Cl)c1cc([N+](=O)[O-])ccc1N2`, the GI50 in the assay on T-47D breast is 8.75 µM; with SF-539 CNS, 7.27 µM; in the assay on HCT-15 colon, 3.86 µM; in the assay on UO-31 renal, 5.46 µM; in the assay on SNB-19 CNS, 11.8 µM; in the assay on MOLT-4 leukemia, 6.76 µM. Also, the GI50 in the assay on CCRF-CEM leukemia was 5.34 µM; in the assay with SNB-75 CNS, 1.31 µM; in the assay with UACC-257 melanoma it was 10.1 µM; in the assay on A498 renal, 4.53 µM. The TGI in the assay on T-47D breast is more than 23 µM; with SF-539 CNS, more than 22 µM; in the assay on HCT-15 colon, more than 25 µM; with UO-31 renal it was more than 18.5 µM; with SNB-19 CNS it was more than 25 µM; in the assay with MOLT-4 leukemia, 20.6 µM. Further, the TGI in the assay on CCRF-CEM leukemia was more than 17.8 µM; in the assay on SNB-75 CNS, more than 17.6 µM; in the assay with UACC-257 melanoma it was more than 25 µM; in the assay with A498 renal, 9.37 µM.
`COc1ccc(-c2nccn2-c2ccc(OC)cc2)cc1`: the GI50 in the assay with T-47D breast was 65.4 µM; in the assay with SF-539 CNS, 28 µM; in the assay with HCT-15 colon, 23.1 µM; in the assay with UO-31 renal, 23.3 µM; in the assay with SNB-19 CNS, 41.8 µM; in the assay on MOLT-4 leukemia it was 27.4 µM. For the same compound, the GI50 with CCRF-CEM leukemia was 23.5 µM; with SNB-75 CNS it was 5.06 µM; with UACC-257 melanoma, 26 µM; with A498 renal, 14.4 µM. Besides, the TGI was more than 100 µM with T-47D breast; 90.4 µM in the assay on SF-539 CNS; more than 67.2 µM in the assay on HCT-15 colon; more than 82 µM in the assay on UO-31 renal; more than 100 µM in the assay on SNB-19 CNS; 89.4 µM with MOLT-4 leukemia. The TGI in the assay on CCRF-CEM leukemia was 76.7 µM; with SNB-75 CNS, 30.3 µM; with UACC-257 melanoma it was more than 88 µM; in the assay with A498 renal, 55.9 µM.
Consider `O=C(NCc1ccc(Cn2c(=O)sn(-c3ccccc3)c2=O)cc1)OCc1ccc2cccc(O)c2n1`, for which the GI50 in the assay with T-47D breast was 1.49 µM; with SF-539 CNS, 1.05 µM; in the assay on HCT-15 colon, 0.298 µM; in the assay on UO-31 renal, 0.571 µM; in the assay with SNB-19 CNS, 1.49 µM; in the assay on MOLT-4 leukemia, 0.785 µM. Also, the GI50 was 0.359 µM with CCRF-CEM leukemia, 0.783 µM in the assay on SNB-75 CNS, 1.37 µM with UACC-257 melanoma and 0.382 µM with A498 renal. Further, the TGI was 4.59 µM in the assay on T-47D breast; 2.3 µM in the assay with SF-539 CNS; 0.969 µM with HCT-15 colon; 1.92 µM in the assay on UO-31 renal; 2.84 µM in the assay with SNB-19 CNS; more than 24.3 µM in the assay with MOLT-4 leukemia. Besides, the TGI with CCRF-CEM leukemia is more than 100 µM; with SNB-75 CNS, 2.08 µM; with UACC-257 melanoma, 3.01 µM; in the assay with A498 renal, 1.89 µM.
Regarding `O=C(Nc1cc(Nc2ncccc2-c2ncnc3nc[nH]c23)ccc1F)c1cc(C(F)(F)F)cc(C(F)(F)F)c1`, the GI50 with T-47D breast was 4.24 µM; in the assay with SF-539 CNS, 1.3 µM; with HCT-15 colon it was 2.12 µM; with UO-31 renal, 0.319 µM; with SNB-19 CNS, 3.78 µM; with MOLT-4 leukemia, 2.32 µM. The GI50 in the assay on CCRF-CEM leukemia was 2.97 µM; in the assay with SNB-75 CNS, 1.9 µM; in the assay with UACC-257 melanoma it was 0.474 µM; in the assay with A498 renal, 0.648 µM. In addition, the TGI in the assay with T-47D breast was more than 10 µM; with SF-539 CNS, 3.04 µM; in the assay on HCT-15 colon it was 5.67 µM; with UO-31 renal, 1.99 µM; in the assay on SNB-19 CNS, more than 10 µM; in the assay on MOLT-4 leukemia, 6.67 µM. Moreover, the TGI in the assay with CCRF-CEM leukemia is more than 10 µM; in the assay on SNB-75 CNS it was 7.15 µM; with UACC-257 melanoma, more than 10 µM; in the assay with A498 renal, 3.92 µM.

Values taken from PubChem BioAssay (NCI).
